# Data published in patent US11001562B2, “Near-infrared fluorescent nerve contrast agents and methods of use thereof” (Beth Israel Deaconess Medical Center, priority 2013, dated 2021).
# “Also recorded” adds a separate entry of the source.
# Columns and labels:
# [1] = Optical property measurements (absorbance and fluorescence spectra); format: physicochemical; settings: 100% FBS with 50 mM HEPES, pH 7.4, 37° C.
# Protocol: Absorbance and fluorescence spectra were obtained at a concentration of […] in 100% FBS supplemented with 50 mM HEPES, pH 7.4. B) Optical properties of Oxazine 4 were measured in PBS (pH 7.4), FBS (pH 7.4), MeOH, and DMSO.
# Oxazine derivatives were obtained from Fisher Scientific Inc. (Pittsburgh, Pa.) or Sigma-Aldrich (Saint Louis, Mo.), and BMB was synthesized as described previously (25). Optical measurements were performed at 37° C. in phosphate-buffered saline (PBS), pH 7.4 or 100% fetal bovine serum (FBS) buffered with 50 mM HEPES, pH 7.4. Absorbance and fluorescence emission spectra were measured using fiber optic HR2000 absorbance (200-1100 nm) and USB2000FL fluorescence (350-1000 nm) spectrometers (Ocean Optics, Dunedin, Fla.). NIR excitation was provided by a 532 nm green laser pointer (Opcom Inc., Xiamen, China) set to 5 mW and coupled through a […] core diameter, NA 0.22 fiber (Fiberguide Industries, Stirling, N.J.). In silico calculation of the partition coefficient (log D at pH 7.4) was calculated using Marvin and J Chem calculator plugins (ChemAxon, Budapest, Hungary). Chemical similarities were calculated by Instant J Chem 6.04 using “Chemical Hashed Fingerprint” with the Normalized Euclidean dissimilarity screening configuration (ChemAxon).
# All optical measurements were performed at 37° C. in phosphate-buffered saline (PBS), pH 7.4, 100% fetal bovine serum (FBS) buffered with 50 mM HEPES, pH 7.4, methanol (MeOH), or dimethyl sulfoxide (DMSO). Absorbance and fluorescence emission spectra of the series of NIR fluorophores were measured using fiber optic HR2000 absorbance (200-1100 nm) and USB2000FL fluorescence (350-1000 nm) spectrometers (Ocean Optics, Dunedin, Fla.). Excitation light was provided by a 532 nm green laser pointer (Opcom Inc., Xiamen, China) set to 5 mW and coupled through a 300 μm core diameter, NA 0.22 fiber (Fiberguide Industries, Stirling, N.J.). In silico calculation of the partition coefficient (log D at pH 7.4) was calculated using Marvin and J Chem calculator plugins (ChemAxon, Budapest, Hungary).
# [2] = tested on: rat brachial plexus and sciatic nerves; assay: In vivo nerve-specificity screening with FLARE imaging
# Text: The dual-NIR channel FLARE^a imaging system has been described in detail previously (26-28). In this study, a 670 nm excitation was used at a fluence rate of 4 mW/cm^2, with white light (400-650 nm) at 40,000 1×. Color and NIR fluorescence images were acquired simultaneously with custom software at rates up to 15 Hz over a 15 cm diameter field of view. A pseudo-colored lime green was used for NIR fluorescence in the color-NIR merged images. The imaging system was positioned at a distance of 18 inches from the surgical field.
# (§1) Initial in vivo screening occurred in rats based on our previous study of BMB (Supplementary Methods) (25). For kinetic and dose-response studies, 50-400 nmol (0.8-6.3 mg/kg) of Oxazine 4 was injected intravenously into mice and measurements taken over 24 h. Control images were acquired prior to injecting NIR fluorophores. The fluorescence signal in nervous tissues and signal-to-background ratio (SBR) compared to neighboring muscle (Mu) were obtained over the period of imaging. For the large animal study, the optimal dose found in mice (200-400 nmol per mouse) was used in pigs by scaling to body surface area (29, 30).
# Sprague-Dawley (SD) male rats weighing 250-300 g were purchased from Charles River Laboratories (Wilmington, Mass.). BMB, Oxazine 1, Oxazine 4, Oxazine 170, Oxazine 750, and Rhodamine 800 were initially screened to investigate nerve specificity in rats. For the initial screening, we administered a relatively high dose (2 mg/kg; 1 μmol) of each fluorophore intravenously. 4 h after injection, brachial plexus (BP) and sciatic nerve (SN) were imaged using the intraoperative FLARE^a system for in vivo nerve-specific fluorophores screening.
# [3] = tested on: brachial plexus (BP) and sciatic nerves (SN) of CD-1 mice; assay: Kinetics and dose-response of nerve targeting in small animals; format: in vivo, mouse
# Protocol: 100 nmol (1.6 mg/kg) of Oxazine was injected intravenously into CD-1 mice, and SBR (BP/Mu) and SBR (SN/Mu) were measured at different time points (T=0, 1, 4, 6, 12, and 24 h). Arrowheads indicate fluorescence signals in nerve bundles. SG=salivary glands; Mu=muscle. Scale bars=1 cm. All NIR fluorescence images have identical exposure times (500 msec) and normalizations. B) Dose-response curve of SBR (mean±SEM) for BP and SN. 0, 50, 100, 200, and 400 nmol of Oxazine 4 were injected intravenously into CD-1 mice, and SBR (BP/Mu) and SBR (SN/Mu) were measured at 4 h post-injection. Arrowheads indicate fluorescence signals in nerve bundles. SG=salivary glands; Mu=muscle. Scale bars=1 cm. All NIR fluorescence images have identical exposure times (500 msec) and normalizations.
# as §1
# The fluorescence intensity (FI) and background (BG) intensity of a region of interest (ROI) over each nerve/tissue were calculated and quantified using custom FLARE^a software. The FI of the RLN, BP, and SN at the optimal dose and time point were quantified to measure tissue-specific targeting. Adjacent tissues such as trachea (Tr), thyroid (Th), tracheoesophageal groove (TEG), muscle (Mu), and adipose tissue (Ad) were used as background to calculate the SBR of RLN, BP, and SN in pigs. Statistical analysis was carried out using a one-way ANOVA followed by Tukey's multiple comparisons test. Results were presented as mean±S.D. and curve fitting was performed using Prism version 4.0a software (GraphPad, San Diego, Calif.).
# [4] = comparison of structures in discussion
smiles,measurement,setting,value
CC/N=c1/cc2oc3cc(NCC)c(C)cc3nc-2cc1C [Oxazine 4],Abs (peak absorbance),[1],616 nm
same,Em (peak emission),[1],635 nm
same,λ (extinction coefficient),[1],"143,000 M^−1cm^−1"
same,nerve-specific fluorescence signal in vivo,"[2]; SD rats, 2 mg/kg (1 μmol) iv, 4 h after injection, brachial plexus and sciatic nerve, 2 mg/kg",highest nerve-specific fluorescence signal; also recorded: higher nerve-specific fluorescence signal
same,background (muscle and adipose tissue) fluorescence signal in vivo,"[2]; SD rats, 2 mg/kg (1 μmol) iv, 4 h after injection, 2 mg/kg",lowest background; also recorded: lower background
same,adipose signal (discussion summary),[2]; [4],moderate adipose
same,nerve signal (discussion summary),[2]; [4],high nerve signal
same,time of highest SBR post-intravenous injection,[3]; 100 nmol (1.6 mg/kg) iv,4 h
same,highest SBR (nerve/muscle),"[3]; 100 nmol (1.6 mg/kg) iv, 4 h post-injection, BP and SN",≈ 3.0
same,SBR at 1 h post-injection,"[3]; 100 nmol iv, 1 h",low
same,fluorescence signal in nervous tissues at 24 h post-injection,"[3]; 100 nmol iv, 24 h",decayed at this time point to pre-injection levels
same,dose dependence of fluorescence signals in BP and SN,"[3]; 50-400 nmol per mouse (0.8-6.3 mg/kg), 4 h post-injection",proportional to the injected dose
same,optimal dose,"[3]; iv, 4 h post-injection",200 nmol
